Source: ChEMBL document CHEMBL6103629 (J Med Chem, 2025)
pIC50: −log10 of the molar value.

Tests used:
[1] = Induction of CYP3A4 mRNA expression in human primary hepatocyte isolated from YND donor at 0.1 to 10 uM incubated for 72 hrs by real-time PCR analysis; assay type: ADME, cell-based; conditions: hepatocytes, dose 0.1-10 µM
[2] = test system: JeKo-1; test: Antitumor activity against human JeKo-1 cells xenografted in female CB17 SCID mouse assessed as tumor growth inhibition at 40 mg/kg BID, po administered as 3 days on and 4 days off schedule for 24 days relative to control; assay type: functional; conditions: JeKo-1, 576 h, time 24 day, read-out: TGI
[3] = Toxicity in female Balb/c nude mouse xenografted with human NCI-H1703 cells assessed as body weight at 40 mg/kg QD, po administered as 3 days on and 4 days off schedule for 4 weeks; assay type: organism-based; conditions: in vivo, 672 h, time 28 day
[4] = Induction of CYP1A2 mRNA expression in human primary hepatocyte isolated from DZM donor at 0.1 to 10 uM incubated for 72 hrs by real-time PCR analysis; assay type: ADME, cell-based; conditions: hepatocytes, dose 0.1-10 µM
[5] = test system: NCI-H1703; test: Synergistic antitumor activity against human NCI-H1703 cells xenografted in female Balb/c nude mouse assessed as tumor growth inhibition co administered with Gemcitabine at 40 mg/kg QD, po administered as 3 days on and 4 days off schedule for 4 weeks relative to control; assay type: functional; conditions: NCI-H1703, 672 h, time 28 day, read-out: TGI
[6] = target: CYP2B6 (Homo sapiens, UniProt P20813); test: Inhibition of recombinant human CYP2B6 assessed as residual activity at 1 uM in the presence of NADPH incubated for 60 mins by LC-MS/MS analysis relative to control; assay type: ADME; conditions: read-out: Activity
Chain of CYP2B6 (P20813 whole entry): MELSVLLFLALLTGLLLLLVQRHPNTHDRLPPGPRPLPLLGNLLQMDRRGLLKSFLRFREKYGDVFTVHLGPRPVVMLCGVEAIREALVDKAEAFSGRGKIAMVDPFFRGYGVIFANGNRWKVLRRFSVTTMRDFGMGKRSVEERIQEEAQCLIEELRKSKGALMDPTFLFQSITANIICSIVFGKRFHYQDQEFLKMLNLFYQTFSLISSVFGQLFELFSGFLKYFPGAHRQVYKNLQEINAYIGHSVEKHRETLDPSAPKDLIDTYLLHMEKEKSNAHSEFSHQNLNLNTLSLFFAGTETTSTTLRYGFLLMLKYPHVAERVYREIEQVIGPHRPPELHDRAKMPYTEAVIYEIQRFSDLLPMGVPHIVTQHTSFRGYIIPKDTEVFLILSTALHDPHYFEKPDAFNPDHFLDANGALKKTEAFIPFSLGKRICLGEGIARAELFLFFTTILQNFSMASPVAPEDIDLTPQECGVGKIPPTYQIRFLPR

[7] = Drug metabolism in Beagle dog plasma by LC-MS/MS analysis; assay type: ADME, cell-free, Canis lupus familiaris; conditions: 5 h, 1 µM
[8] = Permeability across basolateral to apical side in human MDCK-MDR1 cells at 0.1 to 10 uM incubated for 120 mins by LC-MS/MS analysis; assay type: ADME, cell-based, Canis lupus familiaris; conditions: dog, mdck-mdr1, 2 h, dose 0.1-10 µM
[9] = Plasma protein binding in Sprague-Dawley rat at 1 uM incubated for 5 hrs in HTD dialysis in the presence of verapamil by LC-MS/MS analysis relative to control; assay type: ADME, cell-free; conditions: read-out: PPB (converted)
[10] = test system: LoVo; test: Antitumor activity against human LoVo cells xenografted in female Balb/c nude mouse assessed as tumor growth inhibition at 60 mg/kg QD, po measured every 3 days for 25 days relative to control; assay type: functional; conditions: 600 h, time 25 day, read-out: TGI
[11] = Induction of CYP2B6 mRNA expression in human primary hepatocyte isolated from RAS donor at 0.1 to 10 uM incubated for 72 hrs by real-time PCR analysis; assay type: ADME, cell-based; conditions: hepatocytes, dose 0.1-10 µM
[12] = test system: LoVo; test: Induction of apoptosis in human LoVo cells assessed as viable cells at 3 uM incubated for 24 hrs by Annexin-V-FITC-PI staining based flow cytometric analysis (reference value: 72.1 %); assay type: functional; conditions: read-out: Activity
[13] = test system: Hepatocyte; test: Cytotoxicity against human primary hepatocytes isolated from RAS donor at 0.1 to 10 uM incubated for 72 hrs by cytotox-glo assay; assay type: toxicity, cell-based; conditions: dose 0.1-10 µM
[14] = target: Cytochrome P450 3A4 (Homo sapiens, UniProt P08684); test: Inhibition of CYP3A4 in human liver microsomes using midazolam as substrate and in presence of NADPH incubated for 60 mins by LC-MS/MS analysis; assay type: ADME, Microsome
Chain of Cytochrome P450 3A4 (P08684 whole entry): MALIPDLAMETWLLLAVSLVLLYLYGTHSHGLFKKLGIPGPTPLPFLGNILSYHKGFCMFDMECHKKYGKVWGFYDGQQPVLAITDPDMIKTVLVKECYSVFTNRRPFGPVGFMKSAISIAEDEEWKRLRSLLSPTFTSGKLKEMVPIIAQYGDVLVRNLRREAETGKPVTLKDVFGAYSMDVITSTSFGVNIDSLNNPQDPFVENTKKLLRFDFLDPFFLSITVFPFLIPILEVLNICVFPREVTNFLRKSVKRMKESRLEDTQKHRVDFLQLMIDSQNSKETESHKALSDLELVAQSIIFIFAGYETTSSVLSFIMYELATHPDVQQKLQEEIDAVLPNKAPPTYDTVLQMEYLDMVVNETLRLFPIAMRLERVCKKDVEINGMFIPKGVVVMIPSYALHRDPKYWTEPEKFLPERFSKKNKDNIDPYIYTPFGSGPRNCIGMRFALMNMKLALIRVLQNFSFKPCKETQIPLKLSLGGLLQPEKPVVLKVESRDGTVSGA

[15] = Toxicity in male Balb/c nude mouse xenografted with human 22Rv1 cells assessed as body weight at 40 mg/kg QD, po measured every 3 days for 25 days at 10 to 60 mg/kg QD, po measured every 3 days for 18 days; assay type: organism-based; conditions: in vivo, 432 h, time 18 day
[16] = Drug metabolism in human liver cells at 2 uM incubated upto 120 mins by LC-MS/MS analysis; assay type: ADME, cell-based; conditions: 2 h
[17] = test system: Hepatocyte; test: Cytotoxicity against human primary hepatocytes isolated from DZM donor at 0.1 to 10 uM incubated for 72 hrs by cytotox-glo assay; assay type: toxicity, cell-based; conditions: dose 0.1-10 µM
[18] = Toxicity in female Balb/c nude mouse xenografted with human LoVo cells assessed as body weight at 40 mg/kg QD, po measured every 3 days for 25 days; assay type: organism-based; conditions: in vivo, 600 h, time 25 day
[19] = Drug metabolism in human plasma by LC-MS/MS analysis; assay type: ADME, cell-free
[20] = target: CYP2D6 (Homo sapiens, UniProt P10635); test: Inhibition of recombinant human CYP2D6 assessed as residual activity at 1 uM in the presence of NADPH incubated for 60 mins by LC-MS/MS analysis relative to control; assay type: ADME; conditions: read-out: Activity
Chain of CYP2D6 (P10635 whole entry): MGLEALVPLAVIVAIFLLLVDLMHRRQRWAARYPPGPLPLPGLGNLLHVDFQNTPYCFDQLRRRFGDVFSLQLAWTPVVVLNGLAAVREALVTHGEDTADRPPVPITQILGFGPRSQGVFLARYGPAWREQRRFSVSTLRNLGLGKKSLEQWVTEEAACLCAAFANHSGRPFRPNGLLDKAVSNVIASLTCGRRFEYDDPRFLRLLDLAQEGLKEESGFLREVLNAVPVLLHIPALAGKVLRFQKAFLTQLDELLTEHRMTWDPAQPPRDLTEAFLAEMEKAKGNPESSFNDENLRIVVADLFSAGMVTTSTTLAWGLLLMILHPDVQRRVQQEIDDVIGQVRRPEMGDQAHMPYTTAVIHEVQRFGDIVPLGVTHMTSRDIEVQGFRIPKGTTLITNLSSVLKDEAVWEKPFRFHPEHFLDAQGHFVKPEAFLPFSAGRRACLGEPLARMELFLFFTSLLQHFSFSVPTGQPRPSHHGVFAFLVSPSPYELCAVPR

[21] = Drug accumulation in female Sprague-Dawley rat at 5 mg/kg, IG measured for 7 days by LC-MS/MS analysis; assay type: ADME, organism-based; conditions: in vivo, po, 168 h, time 7 day
[22] = Drug distribution in Sprague-Dawley rat stomach at 5 mg/kg, IG administrated as single dose measured after 0.5 hrs by LC-MS/MS analysis; assay type: ADME, organism-based; conditions: in vivo, po
[23] = Induction of CYP2B6 mRNA expression in human primary hepatocyte isolated from YND donor at 0.1 to 10 uM incubated for 72 hrs by real-time PCR analysis; assay type: ADME, cell-based; conditions: hepatocytes, dose 0.1-10 µM
[24] = test system: LoVo; test: Antitumor activity against human LoVo cells xenografted in female Balb/c nude mouse assessed as tumor growth inhibition at 20 mg/kg QD, po measured every 3 days for 25 days relative to control; assay type: functional; conditions: 600 h, time 25 day, read-out: TGI
[25] = Toxicity in Beagle dogs assessed as effect on respiratory system at 5 to 20 mg/kg, po administrated as single dose upto 24 hrs; assay type: organism-based, Canis lupus familiaris; conditions: dog, in vivo, dose 5-20 mg/kg
[26] = Permeability across basolateral to apical side in human Caco-2 cells at 0.1 to 10 uM incubated for 120 mins by LC-MS/MS analysis; assay type: ADME, cell-based; conditions: caco-2, 2 h, dose 0.1-10 µM
[27] = Induction of CYP3A4 mRNA expression in human primary hepatocyte isolated from RAS donor at 0.1 to 10 uM incubated for 72 hrs by real-time PCR analysis; assay type: ADME, cell-based; conditions: hepatocytes, dose 0.1-10 µM
[28] = Toxicity in Sprague-Dawley rats assessed as effect on central nervous system at 10 to 40 mg/kg, po administrated as single dose upto 24 hrs; assay type: organism-based; conditions: rat, in vivo, dose 10-40 mg/kg
[29] = Drug metabolism in CD-1 mouse liver cells at 2 uM incubated upto 120 mins by LC-MS/MS analysis; assay type: ADME, cell-based; conditions: 2 h
[30] = test system: LoVo; test: Induction of apoptosis in human LoVo cells assessed as necrotic cells at 1 uM incubated for 24 hrs by Annexin-V-FITC-PI staining based flow cytometric analysis (reference value: 0.97 %); assay type: functional
[31] = target: Cytochrome P450 2C19 (Homo sapiens, UniProt P33261); test: Inhibition of CYP2C19 in human liver microsomes in the presence of NADPH incubated for 60 mins by LC-MS/MS analysis; assay type: ADME, Microsome
Chain of Cytochrome P450 2C19 (P33261 whole entry): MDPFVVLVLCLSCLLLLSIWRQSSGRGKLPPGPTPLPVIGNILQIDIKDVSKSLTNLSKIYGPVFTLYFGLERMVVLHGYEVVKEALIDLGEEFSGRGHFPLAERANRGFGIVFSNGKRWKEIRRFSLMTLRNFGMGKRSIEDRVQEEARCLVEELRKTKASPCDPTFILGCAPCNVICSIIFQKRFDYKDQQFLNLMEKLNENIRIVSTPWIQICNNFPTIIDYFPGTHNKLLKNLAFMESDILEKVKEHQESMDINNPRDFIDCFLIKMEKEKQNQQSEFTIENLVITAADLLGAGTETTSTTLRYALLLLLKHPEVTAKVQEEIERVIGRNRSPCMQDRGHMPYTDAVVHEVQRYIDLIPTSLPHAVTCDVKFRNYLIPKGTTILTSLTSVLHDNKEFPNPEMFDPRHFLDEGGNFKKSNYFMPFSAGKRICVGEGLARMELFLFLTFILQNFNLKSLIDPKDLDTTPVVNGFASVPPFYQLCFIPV

[32] = Induction of CYP1A2 mRNA expression in human primary hepatocyte isolated from RAS donor at 0.1 to 10 uM incubated for 72 hrs by real-time PCR analysis; assay type: ADME, cell-based; conditions: hepatocytes, dose 0.1-10 µM
[33] = target: CYP2C8 (Homo sapiens, UniProt P10632); test: Inhibition of recombinant human CYP2C8 assessed as residual activity at 1 uM in the presence of NADPH incubated for 60 mins by LC-MS/MS analysis relative to control; assay type: ADME; conditions: read-out: Activity
Chain of CYP2C8 (P10632 whole entry): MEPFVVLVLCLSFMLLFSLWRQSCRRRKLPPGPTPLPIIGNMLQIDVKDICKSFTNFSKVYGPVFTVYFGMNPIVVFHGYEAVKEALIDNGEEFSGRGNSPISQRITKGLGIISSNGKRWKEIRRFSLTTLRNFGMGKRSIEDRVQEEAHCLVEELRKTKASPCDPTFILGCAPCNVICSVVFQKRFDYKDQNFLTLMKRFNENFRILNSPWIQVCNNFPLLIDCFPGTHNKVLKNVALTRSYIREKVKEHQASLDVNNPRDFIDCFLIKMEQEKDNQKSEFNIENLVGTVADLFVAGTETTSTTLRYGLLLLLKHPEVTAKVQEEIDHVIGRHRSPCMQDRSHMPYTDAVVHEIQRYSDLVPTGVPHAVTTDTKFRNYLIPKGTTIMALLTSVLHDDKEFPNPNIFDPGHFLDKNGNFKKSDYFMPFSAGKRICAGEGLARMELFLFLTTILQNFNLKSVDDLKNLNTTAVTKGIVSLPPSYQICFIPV

## Cc1nn(-c2cccnc2)c(C)c1-c1cc(N2CC3CCC(C2)O3)nc2c(-c3ccn[nH]3)cnn12.O=C(O)/C=C/C(=O)O
[1]
  Activity: Active
[2]
  inhibition in vivo at 40 mg/kg: 90.6%
[3]
  Activity: Non-toxic
[4]
  Activity: Not_active
[5]
  inhibition in vivo at 40 mg/kg: 92.9%
[6]
  activity at 1 h, 1 µM: 94.1%
[7]
  Drug metabolism: metabolite_notdetected
[8]
  permeability: Permeable
[9]
  fraction unbound at 5 h, 1 µM: 0.136
[10]
  inhibition in vivo at 60 mg/kg: 67.4%
[11]
  Activity: Active
[12]
  viability at 3 µM: 53.7%
[13]
  Activity: Non-toxic
[14]
  pIC50: 4.32
[15]
  Activity: Non-toxic
[16]
  Drug metabolism: metabolite_detected
[17]
  Activity: Non-toxic
[18]
  Activity: Non-toxic
[19]
  Drug metabolism: metabolite_notdetected
[20]
  activity at 1 h, 1 µM: 101%
[21]
  Drug uptake: Active
[22]
  Drug uptake: Active
[23]
  Activity: Not_active
[24]
  inhibition in vivo at 20 mg/kg: 26.9%
[25]
  Activity: Non-toxic
[26]
  permeability: Permeable
[27]
  Activity: Active
[28]
  Activity: Non-toxic
[29]
  Drug metabolism: metabolite_detected
[30]
  Activity: 0.8%
[31]
  pIC50: 4.27
[32]
  Activity: Not_active
[33]
  activity at 1 h, 1 µM: 16.3%
